The values that follow are results of earlier work, collected in PMC8761874 (European Journal of Nuclear Medicine and Molecular Imaging, 2022).

Like-named read-outs stand apart in the source and are kept apart here.

In data set [1] the test system is PD-L1-positive non-small cell lung cancer. The settings on record: tiragolumab plus atezolizumab, ref [15].
The subject of data set [2] is patients with advanced solid tumors. The settings on record: ref [13].

Turning to “tiragolumab: anti-TIGIT mAb, given with atezolizumab in the CITYSCAPE trial”, the “objective response rate (ORR)” value in data set [1] (subgroup with high PD-L1 expression) is reported as 66%; in data set [1], 37%.

B1: MK-7684: anti-TIGIT mAb in a phase I trial (antibody, chains of the INN, looked up, V domains shown)
VH: EVQLVQSGAEVKKPGSSVKVSCKASGYTFSSYVMHWVRQAPGQGLEWIGYIDPYNDGAKYAQKFQGRVTLTSDKSTSTAYMELSSLRSEDTAVYYCARGGPYGWYFDVWGQGTTVTVSS
VL: DIQMTQSPSSLSASVGDRVTITCRASEHIYSYLSWYQQKPGKVPKLLIYNAKTLAEGVPSRFSGSGSGTDFTLTISSLQPEDVATYYCQHHFGSPLTFGQGTRLEIK
Regarding B1, the partial response rate in data set [2] (in combination with pembrolizumab, n = 8/43) is recorded as 19%; in data set [2] (monotherapy, n = 1/34) it was 3%.
